Inconclusive results are not listed.

From PubChem BioAssay AID743417 (Broad Institute, 2014) come the findings set out here.

The subject of the test is Clone20 osteoblast Shn3 3'UTR firefly luciferase, 24 h. Kind of test: Schnurri-3 3'UTR-luciferase signal suppressors – cell-based, Clone20 osteoblasts, luminescence, dry powder, set 2, dose response (AID 743417).
Broadly, the AC50 is the concentration at which the activity in the assay is half-maximal. Regarding `CC[C@H]1CN2CCc3cc(OC)c(OC)cc3C2C[C@@H]1C[C@H]1NCCc2cc(OC)c(OC)cc21` (stereo not given in full), the AC50 is under 260 nM. The value for `CC1=C(CO)C(=O)OC([C@@H](C)C2CC[C@H]3C4C[C@H]5O[C@]56[C@@H](O)C=CC(=O)[C@]6(C)C4CC[C@]23C)C1` (stereo not given in full) was 674 nM.

Consider `O=C1CC(Sc2nnnn2-c2ccccc2)C(=O)N1c1cccc(Cl)c1` (stereo not given), for which the AC50 is 8530 nM. To `Cc1nc2ccc(NS(=O)(=O)c3ccc4c(c3)OCCO4)cc2s1` belongs 635 nM; to `COc1ccc(C)cc1NS(=O)(=O)c1ccc(-c2cnc(C3CC3)o2)cc1`, 3760 nM; to `CCN(CC)S(=O)(=O)c1ccc(C)c(NC(=S)N2CCN(C/C=C/c3ccccc3)CC2)c1`, 2550 nM. The value for `Cc1ccc([C@@H]2CC(=O)[C@@H]3CN(S(=O)(=O)c4ccccc4C)[C@H](c4ccc(Cl)cc4)C[C@@H]3N2S(=O)(=O)c2ccc(C)cc2)cc1` was 361 nM; that for `C=C1CC(Cn2cc(Br)c(=O)[nH]c2=O)(c2ccc(-c3ccccc3)cc2)OC1=O` (stereo not given) was 2670 nM. The value for `CCN(CC)S(=O)(=O)c1ccc(S(=O)(=O)Nc2c(C)nn(C)c2C)cc1` was 2240 nM. As for `CC(NCc1ccc(OCc2ccc(Cl)cc2)cc1)C(O)c1ccccc1` (stereo not given), the AC50 was 10900 nM. To `O=C1C=C(N2CCOCC2)c2ccccc2C1=O` belongs 7160 nM; to `Oc1c(CN2CCCCC2)ccc2cccnc12`, 2110 nM.

Regarding `COc1cc2ccnc(Cc3cccc(OC)c3OC)c2cc1OC`, the AC50 is 4640 nM. `CCOc1cc(C)c(S(=O)(=O)Nc2ccc3cn[nH]c3c2)cc1C`: the AC50 is 4890 nM. The value for `CN(C)CC(C(=O)Cc1ccccc1)c1ccccc1` (stereo not given) was 7810 nM; that for `CC(=O)c1cccc(NS(=O)(=O)c2ccc(N/C=C\C(=O)c3ccc(C)cc3)cc2)c1` was 1510 nM; that for `CSc1nnc(NC(=O)c2nc(S(=O)(=O)Cc3cccc(C)c3)ncc2Cl)s1` was 4030 nM. To `O=C(Nc1cccc(C(F)(F)F)c1)Nc1ccc(N2CCCC2)c(S(=O)(=O)Nc2ccccc2Cl)c1` belongs 4420 nM; to `COc1cc(C(=O)NC2CCCc3c2cnn3-c2ccccc2F)cc(OC)c1OC` (stereo not given), 781 nM; to `COc1ccc(-c2nsc3c(N4CCCCC4C)ncnc23)cc1` (stereo not given), under 260 nM.

Turning to `CCCC(=O)N1CCN(c2ccc(NC(=O)c3ccc([N+](=O)[O-])o3)cc2Cl)CC1`, the AC50 is 700 nM.

Regarding `CCOC(=O)c1c(-c2ccccc2)oc2cc(CN(C)C)c(O)c(CN(C)C)c12`, the AC50 is 7810 nM. To `CC(=O)Nc1ccc(Sc2ccc([N+](=O)[O-])o2)cc1` belongs 2150 nM; to `O=C(Nc1ccc(Cl)c(Cl)c1)c1cccc(S(=O)(=O)NCc2cccnc2)c1`, 5390 nM; to `CCCCC(=O)NC(c1ccccc1)c1ccc2cccnc2c1O` (stereo not given), 2350 nM. The value for `O=C(O)C1(Nc2ccccc2Cl)CCCC1` was 29500 nM; that for `O=C(c1ccccc1)C(CN1CCCC1)c1ccccc1` (stereo not given) was 10700 nM.

With `COc1ccc2c(c1OC)C(=O)OC2Nc1nc(-c2ccccc2)cs1` (stereo not given), the AC50 is 4700 nM.

As for `O=C(c1cc2nc(-c3ccc(F)cc3)cc(C(F)(F)F)n2n1)N1CCCCC1c1cccnc1` (stereo not given), the AC50 is 2370 nM.

For `COc1cc(C2c3cc4c(cc3C(OC3OC5COC(c6cccs6)OC5C(O)C3O)C3COC(=O)C23)OCO4)cc(OC)c1O` (stereo not given), the AC50 is 1110 nM. To `CC(C)(C)c1nc(NCCN2CCOCC2)c2nnn(Cc3ccccc3Cl)c2n1` belongs 8850 nM. Regarding `Cc1ccc(-n2nnnc2-c2cnc(-c3cccnc3)nc2C(F)(F)F)cc1`, the AC50 is 5890 nM.

Consider `CCC(C)C1NC(=O)C(NC(=O)C(CC(C)C)N(C)C(=O)C2CCCN2C(=O)C(C)O)C(C)OC(=O)C(Cc2ccc(OC)cc2)N(C)C(=O)C2CCCN2C(=O)C(CC(C)C)NC(=O)[C@H](C)C(=O)[C@H](C(C)C)OC(=O)CC1O` (stereo not given in full), for which the AC50 was under 260 nM. The value for `CC(=O)NC(c1cccc([N+](=O)[O-])c1)c1ccc2cccnc2c1O` (stereo not given) was 889 nM. The value for `CC1C(OC(=O)CCC(=O)NC(C)(C)CO)O[C@H]2OC3(C)CC[C@H]4[C@H](C)CCC1C24OO3` (stereo not given in full) was 495 nM.
